According to patent US11787839B2, “Targeting α2δ-1-bound glutamate receptors for treating diseases and disorders” (Board of Regents, The University of Texas System, priority 2017, dated 2023):
“Also recorded” adds a separate entry of the source.

Tests used:
[1] = system: GluN1/GluN2A or GluN1/GluN2B NMDARs with or without α2δ-1 in HEK293 cells; assay: Whole-cell recording of NMDAR currents in HEK293 cells; assay type: cell-based, rat; set-up: α2δ-1 co-expression-induced increase in the NMDAR current density / NMDAR currents in cells expressing GluN1/GluN2A or GluN1/GluN2B alone: dose or concentration left out as unconfirmed
Description: Cell culture and transfection: HEK293 cells (American Type Culture Collection, Manassas, Va.) were maintained in Dulbecco's modified Eagle medium (DMEM) (#10-017-CV, Corning, Manassas, Va.) supplemented with 10% fetal bovine serum (#F4135, Sigma-Aldrich) and penicillin/streptomycin (#30-002-CI, Corning). Cells were passaged after they reached a confluence of 80-90%, approximately every 2 days. HEK293 cells were transfected using PolyJet reagents (#SL100688, SignaGen Laboratories, Gaithersburg, Md.) at a GluN1/GluN2/α2δ-1 ratio of 1:3:1 (the DNA:PolyJet ratio was 1:3).
Whole-cell recording of NMDAR currents in HEK293 cells: Whole-cell recording was performed using a fire-polished pipette (3-5 MΩ) pulled from borosilicate glass and filled with an intracellular solution containing (in mM) 135 CsF, 2 MgCl2, 0.5 CaCl2, 5 EGTA, 2 Mg-ATP and 10 HEPES (pH, 7.25; 285 mOsmol/L). The extracellular solution contained (in mM) 160 NaCl, 2.5 KCl, 0.2 CaCl2, 10 HEPES, and 10 glucose (pH, 7.35; 300-310 mOsmol/L). Whole-cell currents were recorded with an EPC-10 amplifier (HEKA Instruments, Lambrecht, Germany) at a holding potential of −60 mV. Signals were filtered at 1 kHz, digitized at 10 kHz and acquired using the Pulse program (HEKA Instruments). After the whole-cell configuration was established, the cell membrane capacitance and series resistance were electronically compensated for. Glycine (10 μM) and NMDA (300 μM) were used to elicit NMDAR currents. For voltage-dependent Mg^2+ block experiments, the conductance-voltage relation of NMDARs was assessed when 2 mM MgCl2 was added to the extracellular solution. The sensitivity of NMDARs to Mg^2+ was estimated by fitting current-voltage relationships to a Boltzmann function (Zhou et al., 2012). All HEK293 cell recording experiments were performed at 25° C.

[2] = system: surface GluN1, GluN2A, GluN2B; assay: HEK293 cell membrane surface protein analysis (biotinylation); assay type: cell-based, rat; set-up: dose or concentration left out as unconfirmed; conditions: gabapentin for 60 min
Procedure: Isolation and analysis of HEK293 cell membrane surface proteins: HEK293 cells were transfected with GluN1-1a, GluN2A/GluN2B and/or α2δ-1 after they had grown to 80-90% confluence in 75-cm^2 culture flasks. Cell surface biotinylation was performed using the Pierce Cell Surface Protein Isolation Kit (#89881, Thermo Fisher Scientific) according to the manufacturer's instructions. Briefly, cells were incubated with Sulfo-NHS—SS-biotin, which covalently binds to primary amino groups of extracellular proteins at 4° C. with constant rotation for 30 min. Excess biotin was quenched with quenching solution (Chaplan et al., 1997). The cells were washed, harvested by gentle scraping and lysed using the provided lysis buffer in the cocktail of protease and phosphatase inhibitors (#78440, Thermo Fisher Scientific) for 30 min at 4° C. The lysates were then centrifuged for 2 min at 10,000×g at 4° C., and the clear supernatants were added to NeutrAvidin agarose and incubated for 60 min at 25° C. with end-over-end mixing. The unbound (unbiotinylated) proteins, representing the intracellular fraction, were separated from the captured surface proteins by centrifugation of the column. […] Protein bands were quantified using Image Studio software (version 3.1, LI-COR Biosciences).

[3] = target: T1, α2δ-1 and NMDAR subunits in spinal cord synaptosomes (Rattus norvegicus, UniProt P35439+Q00959+Q00960); assay: Protein levels in spinal cord synaptosomes of treated slices (SNL, sham); assay type: cell-based; conditions: SNL rats; slices treated 30 min
T1 construct: from tissue; host or cells: rat lumbar spinal cord slices (lamina II neurons) and synaptosomes made from them
Procedure: PSD-95, a known postsynaptic protein, was used as an internal control.
Spinal cord synaptosome preparation: The spinal cord slices were pooled from 2 rats and were homogenized using glass-Teflon homogenizer in 10 volumes of ice-cold HEPES-buffered sucrose (0.32 M sucrose, 1 mM EGTA, and 4 mM HEPES at pH 7.4) containing the protease inhibitor cocktail (Sigma-Aldrich). The homogenate was centrifuged at 1,000×g for 10 min at 4° C. to remove the nuclei and large debris. […] The synaptosomal pellet was lysed via hypo-osmotic shock in 9 volumes of ice-cold HEPES-buffer with the protease inhibitor cocktail for 30 min. The lysate was centrifuged at 25,000×g for 20 min at 4° C. to obtain the synaptosomal membrane fraction, which was then dissolved in sodium dodecyl sulfate sample buffer at a final concentration of 0.25 μg/μl for immunoblotting. […] The α2δ-1Tat peptide and scrambled control peptide were synthesized by Bio Basic Inc. (Marham, Ontario, Canada) and validated by using liquid chromatography and mass spectrometry.

[4] = target: T2, presynaptic NMDARs of spinal dorsal horn neurons (Rattus norvegicus, UniProt P35439+Q00959+Q00960); assay: Spinal cord slice recordings, morphine-treated rats; assay type: cell-based; conditions: AP5 50 μM, gabapentin 100 μM
T2 construct: from tissue; host or cells: rat lumbar spinal cord slices (lamina II neurons) and synaptosomes made from them
Procedure: Spinal cord slice preparation and electrophysiological recordings: The lumbar spinal cord was rapidly removed through laminectomy from the animals anesthetized with isoflurane. […] The spinal cord tissue was then placed in a shallow groove formed in an agar block and glued onto the stage of a vibratome (Leica, Germany).
All signals were recorded using an amplifier (MultiClamp700B; Axon Instruments Inc., Union City, Calif.), filtered at 1-2 kHz, and digitized at 10 kHz.

T2 sequence (Q00959 20-1464 limits assumed, other chains not shown): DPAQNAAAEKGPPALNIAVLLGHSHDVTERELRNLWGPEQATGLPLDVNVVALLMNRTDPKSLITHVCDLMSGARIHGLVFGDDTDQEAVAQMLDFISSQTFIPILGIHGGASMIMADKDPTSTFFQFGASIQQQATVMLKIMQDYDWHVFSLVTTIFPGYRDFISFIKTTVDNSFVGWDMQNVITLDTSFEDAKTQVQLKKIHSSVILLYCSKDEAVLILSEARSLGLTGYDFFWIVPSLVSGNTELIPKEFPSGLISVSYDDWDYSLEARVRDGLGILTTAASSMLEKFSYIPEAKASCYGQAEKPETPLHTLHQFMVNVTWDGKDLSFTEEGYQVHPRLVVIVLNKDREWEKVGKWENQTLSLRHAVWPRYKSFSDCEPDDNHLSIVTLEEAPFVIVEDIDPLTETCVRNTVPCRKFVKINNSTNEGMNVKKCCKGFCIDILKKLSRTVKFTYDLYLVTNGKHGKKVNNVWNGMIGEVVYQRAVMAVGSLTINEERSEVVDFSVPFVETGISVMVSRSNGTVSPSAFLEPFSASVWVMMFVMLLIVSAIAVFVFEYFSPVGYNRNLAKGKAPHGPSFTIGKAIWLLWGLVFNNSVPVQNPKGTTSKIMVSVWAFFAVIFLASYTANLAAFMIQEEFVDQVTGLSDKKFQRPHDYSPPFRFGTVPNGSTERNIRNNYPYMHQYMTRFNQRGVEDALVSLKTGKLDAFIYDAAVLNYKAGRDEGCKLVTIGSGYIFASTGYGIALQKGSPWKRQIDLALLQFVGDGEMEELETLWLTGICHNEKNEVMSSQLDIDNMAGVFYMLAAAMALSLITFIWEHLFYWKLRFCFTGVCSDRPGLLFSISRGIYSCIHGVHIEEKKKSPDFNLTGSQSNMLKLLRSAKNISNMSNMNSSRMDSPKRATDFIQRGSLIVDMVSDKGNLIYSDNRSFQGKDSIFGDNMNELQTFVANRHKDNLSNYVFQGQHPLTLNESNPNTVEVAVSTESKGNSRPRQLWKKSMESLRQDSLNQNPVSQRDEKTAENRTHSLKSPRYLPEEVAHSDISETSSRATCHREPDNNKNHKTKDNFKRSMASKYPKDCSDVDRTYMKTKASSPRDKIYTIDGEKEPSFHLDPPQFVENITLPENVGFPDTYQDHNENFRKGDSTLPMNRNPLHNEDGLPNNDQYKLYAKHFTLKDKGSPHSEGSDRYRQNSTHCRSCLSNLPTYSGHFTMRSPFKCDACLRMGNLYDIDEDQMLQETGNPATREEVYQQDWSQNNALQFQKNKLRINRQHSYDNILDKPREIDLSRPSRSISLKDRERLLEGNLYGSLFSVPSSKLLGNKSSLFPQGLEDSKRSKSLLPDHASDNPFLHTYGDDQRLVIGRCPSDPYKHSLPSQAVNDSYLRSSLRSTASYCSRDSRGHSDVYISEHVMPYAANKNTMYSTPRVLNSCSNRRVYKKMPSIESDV
T2 sequence (Q00960 27-1482, other chains not shown): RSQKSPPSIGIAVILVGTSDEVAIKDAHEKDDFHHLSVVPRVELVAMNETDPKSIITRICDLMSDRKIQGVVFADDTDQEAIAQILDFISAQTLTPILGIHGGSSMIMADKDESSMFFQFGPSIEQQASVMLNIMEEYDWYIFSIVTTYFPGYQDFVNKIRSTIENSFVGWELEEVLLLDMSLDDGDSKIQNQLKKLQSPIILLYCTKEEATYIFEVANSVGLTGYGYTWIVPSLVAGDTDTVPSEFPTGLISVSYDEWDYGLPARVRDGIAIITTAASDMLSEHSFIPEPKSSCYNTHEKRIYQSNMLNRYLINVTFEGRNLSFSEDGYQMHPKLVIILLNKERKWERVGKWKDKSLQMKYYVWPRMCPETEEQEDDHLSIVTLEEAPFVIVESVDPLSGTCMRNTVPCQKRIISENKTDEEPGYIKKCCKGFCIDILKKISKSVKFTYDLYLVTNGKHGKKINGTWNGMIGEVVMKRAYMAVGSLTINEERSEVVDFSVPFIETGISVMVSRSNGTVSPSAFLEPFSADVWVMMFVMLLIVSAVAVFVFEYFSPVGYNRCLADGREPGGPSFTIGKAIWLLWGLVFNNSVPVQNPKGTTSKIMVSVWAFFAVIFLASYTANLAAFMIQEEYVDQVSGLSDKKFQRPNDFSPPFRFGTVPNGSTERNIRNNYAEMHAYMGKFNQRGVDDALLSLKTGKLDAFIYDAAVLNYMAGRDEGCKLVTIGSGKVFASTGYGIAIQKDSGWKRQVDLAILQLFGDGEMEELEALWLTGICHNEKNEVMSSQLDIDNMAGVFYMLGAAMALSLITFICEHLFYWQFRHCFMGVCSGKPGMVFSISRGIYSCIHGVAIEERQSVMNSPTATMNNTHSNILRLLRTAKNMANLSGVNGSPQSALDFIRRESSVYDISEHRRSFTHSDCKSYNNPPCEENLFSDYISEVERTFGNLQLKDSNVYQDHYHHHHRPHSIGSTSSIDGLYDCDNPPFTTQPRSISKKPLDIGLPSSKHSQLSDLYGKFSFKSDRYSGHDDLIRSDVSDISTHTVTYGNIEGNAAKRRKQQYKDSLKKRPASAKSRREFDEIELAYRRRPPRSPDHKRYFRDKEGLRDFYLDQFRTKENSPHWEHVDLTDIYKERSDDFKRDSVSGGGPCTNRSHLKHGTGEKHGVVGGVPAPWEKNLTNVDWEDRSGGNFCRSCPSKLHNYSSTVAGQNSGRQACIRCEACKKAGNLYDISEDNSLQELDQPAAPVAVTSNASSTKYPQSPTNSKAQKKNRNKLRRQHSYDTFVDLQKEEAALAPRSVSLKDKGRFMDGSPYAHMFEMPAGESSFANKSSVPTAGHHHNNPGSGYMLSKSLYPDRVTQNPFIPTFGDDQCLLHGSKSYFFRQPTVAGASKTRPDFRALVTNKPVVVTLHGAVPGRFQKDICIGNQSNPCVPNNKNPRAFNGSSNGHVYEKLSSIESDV

For `NCC1(CC(=O)O)CCCCC1` [gabapentin], the “α2δ-1 co-expression-induced increase in the NMDAR current density” value ([1]; HEK293) was “completely reversed”, the “NMDAR currents in cells expressing GluN1/GluN2A or GluN1/GluN2B alone” value ([1]; HEK293 without α2δ-1) was “had no effect” and the “α2δ-1-reduced voltage-dependent Mg2+ block of GluN1/GluN2A NMDARs” value ([1]; at −40 and −60 mV) was “reversed this effect”. The “surface protein levels of GluN1, GluN2A and GluN2B increased by α2δ-1 coexpression” value [2] was “normalized; also recorded: reversed”.
With “YGRKKRRQRRRVSGLNPSLWSIFGLQFILLWLVSGSRHYLW (a2d1 peptide) [α2δ-1Tat peptide, 30-amino-acid peptide mimicking the C-terminal domain of α2δ-1 fused to the cell-penetrating peptide Tat]” the “increased protein levels of GluN1, GluN2A, GluN2B and α2δ-1 in spinal cord synaptosomes” value [3] was “largely normalized”, the “frequency of mEPSCs in dorsal horn neurons” value ([4]; peptide 1 μM for 60 min) was “significantly reduced” and the “amplitude of monosynaptic evoked EPSCs” value ([4]; peptides 1 μM for 60 min) was “normalized”.
